Data on nine molecules can be found in patent US20180000085A1, “USE OF PICOLINAMIDE COMPOUNDS WITH FUNGICIDAL ACTIVITY” (DOW AGROSCIENCES LLC, priority 2014, published 2018).

What all share (assay type): in vivo
For one test, the system named is Zymoseptoria tritici. In words: Leaf blotch of wheat (SEPTTR) disease control on wheat seedlings. On the set-up: key to SEPTTR 1DP, HV activity at 100 ppm (% control rating) / SEPTTR 3DC, HV activity at 100 ppm (% control rating) / SEPTTR disease control, 1DP / SEPTTR disease control, 3DC / SEPTTR 1DP disease control rating, HV activity / SEPTTR 3DC disease control rating, HV activity / SEPTTR 3DC, LV activity at 125.1 g/H (% Control rating) / SEPTTR 1DP, LV activity at 125.1 g/H (% Control rating) / SEPTTR 1DP disease control rating, LV activity at 125.1 g/H / SEPTTR 3DC disease control rating, LV activity at 125.1 g/H / SEPTTR 3DC disease control rating, HV activity at 100 ppm / SEPTTR 1DP disease control rating, HV activity at 100 ppm / HV activity at 100 ppm SEPTTR 3DC (disease control rating) / HV activity at 100 ppm SEPTTR 1DP (disease control rating) / LV activity at 125.1 g/H SEPTTR 1DP (disease control rating) / LV activity at 125.1 g/H SEPTTR 3DC (disease control rating): A: > 80; B: ≤ 80; C: Not Tested; D: No Activity Observed in the Reported Assay. The following applies: low volume application, 125.1 g/H; for SEPTTR 1DP disease control rating, LV activity at 125.1 g/H: 1 day protectant; for SEPTTR 3DC disease control rating, LV activity at 125.1 g/H: 3 day curative.

The next test relates to Puccinia triticina. In words: Wheat brown rust (PUCCRT) disease control on wheat seedlings. Also noted: key to PUCCRT 3DC, HV activity at 100 ppm (% control rating) / PUCCRT disease control, 3DC / PUCCRT 1DP disease control rating, HV activity / PUCCRT 3DC disease control rating, HV activity / PUCCRT 3DC, LV activity at 125.1 g/H (% Control rating) / PUCCRT 1DP, LV activity at 125.1 g/H (% Control rating) / PUCCRT 3DC disease control rating, LV activity at 125.1 g/H / PUCCRT 1DP disease control rating, LV activity at 125.1 g/H / PUCCRT 3DC disease control rating, HV activity at 100 ppm / PUCCRT 1DP disease control rating, HV activity at 100 ppm / HV activity at 100 ppm PUCCRT 3DC (disease control rating) / LV activity at 125.1 g/H PUCCRT 1DP (disease control rating) / LV activity at 125.1 g/H PUCCRT 3DC (disease control rating): A: > 80; B: ≤ 80; C: Not Tested; D: No Activity Observed in the Reported Assay. The following applies: low volume application, 125.1 g/H; for PUCCRT 1DP disease control rating, LV activity at 125.1 g/H: 1 day protectant; for PUCCRT 3DC disease control rating, LV activity at 125.1 g/H: 3 day curative.

A further test concerns Phakopsora pachyrhizi. The test can be described thus: Asian soybean rust (PHAKPA) disease control. Conditions: 25 ppm; for PHAKPA disease control, 1DP: 1 Day Protectant; for PHAKPA disease control, 3DC: 3 Day Curative.

Regarding `COc1ccnc(C(=O)N[C@@H](C)C(=O)O[C@@H](C)[C@H](Oc2ccc(F)cc2)C(C)C)c1OCOC(C)=O` [Cmpd 615], the “SEPTTR 1DP, LV activity at 125.1 g/H (% Control rating)” value (“SEPTTR 1DP … (% Control rating)” for short) with Zymoseptoria tritici (1 Day Protectant) is listed as “A (> 80)”. The “SEPTTR 3DC, LV activity at 125.1 g/H (% Control rating)” value (from here on “SEPTTR 3DC … (% Control rating)”) in the test on Zymoseptoria tritici (3 Day Curative) is “A (> 80)”. The “PUCCRT 1DP, LV activity at 125.1 g/H (% Control rating)” value (from here on “PUCCRT 1DP … (% Control rating)”) in the test with Puccinia triticina (1 Day Protectant) is recorded as “A (> 80)”. In addition, the “PUCCRT 3DC, LV activity at 125.1 g/H (% Control rating)” value (from here on “PUCCRT 3DC … (% Control rating)”) in the test with Puccinia triticina (3 Day Curative) is on record as “A (> 80)”. Moreover, in the test on Phakopsora pachyrhizi, the “PHAKPA disease control, 1DP” value is given as “A (> 80)” and the “PHAKPA disease control, 3DC” value is “B (≤ 80)”.
As to `COc1ccnc(C(=O)N[C@@H](C)C(=O)O[C@@H](C)[C@H](Oc2cc(F)ccc2F)C(C)C)c1OC(C)=O` [Cmpd 627], in the test with Zymoseptoria tritici (1 Day Protectant), the “SEPTTR 1DP … (% Control rating)” value is reported as “B (≤ 80)”. Moreover, the “SEPTTR 3DC … (% Control rating)” value with Zymoseptoria tritici (3 Day Curative) is reported as “A (> 80)”. In addition, the “PUCCRT 1DP … (% Control rating)” value in the test with Puccinia triticina (1 Day Protectant) is reported as “A (> 80)”. Further, the “PUCCRT 3DC … (% Control rating)” value with Puccinia triticina (3 Day Curative) is “A (> 80)”. In addition, in the test on Phakopsora pachyrhizi, the “PHAKPA disease control, 1DP” value is given as “B (≤ 80)” and the “PHAKPA disease control, 3DC” value is given as “B (≤ 80)”.
As to `C=CC(C)C(Oc1ccccc1)C(C)OC(=O)C(C)NC(=O)c1nccc(OC)c1OC(C)=O` (centres unmarked) [Cmpd 693], in the test on Zymoseptoria tritici, the “SEPTTR 1DP disease control rating, LV activity at 125.1 g/H” value (from here on “SEPTTR 1DP disease control rating”) is given as “B (≤ 80)” and the “SEPTTR 3DC disease control rating, LV activity at 125.1 g/H” value (from here on “SEPTTR 3DC disease control rating”) was “A (> 80)”. Further, in the test with Puccinia triticina, the “PUCCRT 1DP disease control rating, LV activity at 125.1 g/H” value (from here on “PUCCRT 1DP disease control rating”) was “A (> 80)” and the “PUCCRT 3DC disease control rating, LV activity at 125.1 g/H” value (from here on “PUCCRT 3DC disease control rating”) was “A (> 80)”. Also, in the test with Phakopsora pachyrhizi, the “PHAKPA disease control, 1DP” value was “A (> 80)” and the “PHAKPA disease control, 3DC” value is listed as “B (≤ 80)”.
For the molecule `CCC(CC)[C@H](Oc1cccc(F)c1)[C@H](C)OC(=O)[C@H](C)NC(=O)c1nccc(OC)c1OCOC(C)=O` [Cmpd 668], in the test on Zymoseptoria tritici, the “SEPTTR 1DP disease control rating” value is “A (> 80)” and the “SEPTTR 3DC disease control rating” value is “A (> 80)”. In the test on Puccinia triticina, the “PUCCRT 1DP disease control rating” value was “A (> 80)” and the “PUCCRT 3DC disease control rating” value is listed as “A (> 80)”. For the same molecule, in the test on Phakopsora pachyrhizi, the “PHAKPA disease control, 1DP” value is on record as “B (≤ 80)” and the “PHAKPA disease control, 3DC” value is “B (≤ 80)”.
On to `CCC(CC)[C@@H](OCC(C)C)[C@H](C)OC(=O)[C@H](C)NC(=O)c1nccc(OC)c1OCOC(C)=O` [Cmpd 554], for which the “SEPTTR 1DP … (% Control rating)” value with Zymoseptoria tritici (1 Day Protectant) is “B (≤ 80)”. In the test with Zymoseptoria tritici (3 Day Curative), the “SEPTTR 3DC … (% Control rating)” value is listed as “A (> 80)”. Further, the “PUCCRT 1DP … (% Control rating)” value in the test on Puccinia triticina (1 Day Protectant) is reported as “A (> 80)”. In addition, the “PUCCRT 3DC … (% Control rating)” value in the test with Puccinia triticina (3 Day Curative) is “A (> 80)”. In the test on Phakopsora pachyrhizi, the “PHAKPA disease control, 1DP” value is “A (> 80)” and the “PHAKPA disease control, 3DC” value was “B (≤ 80)”.
For `COc1ccnc(C(=O)N[C@@H](C)C(=O)O[C@@H](C)[C@H](Oc2cccc(Cl)c2)C2CCCC2)c1OC(C)=O` [Cmpd 920, (S)-(1R,2S)-1-(3-chlorophenoxy)-1-cyclopentylpropan-2-yl-2-(3-acetoxy-4-methoxypicolinamido)propanoate], in the test on Zymoseptoria tritici, the “SEPTTR 1DP disease control rating” value was “A (> 80)” and the “SEPTTR 3DC disease control rating” value is given as “A (> 80)”. In addition, in the test on Puccinia triticina, the “PUCCRT 1DP disease control rating” value is “A (> 80)” and the “PUCCRT 3DC disease control rating” value was “A (> 80)”. Further, in the test with Phakopsora pachyrhizi, the “PHAKPA disease control, 1DP” value is recorded as “B (≤ 80)” and the “PHAKPA disease control, 3DC” value was “B (≤ 80)”.
Turning to `COc1ccnc(C(=O)N[C@H](C(=O)O[C@@H](C)[C@H](Oc2cccc(Cl)c2)C(C)C)C(C)C)c1OC(C)=O` [Cmpd 569], in the test on Zymoseptoria tritici (1 Day Protectant), the “SEPTTR 1DP … (% Control rating)” value is reported as “B (≤ 80)”. Besides, in the test with Zymoseptoria tritici (3 Day Curative), the “SEPTTR 3DC … (% Control rating)” value is “A (> 80)”. In the test with Puccinia triticina (1 Day Protectant), the “PUCCRT 1DP … (% Control rating)” value is given as “A (> 80)”. The “PUCCRT 3DC … (% Control rating)” value in the test with Puccinia triticina (3 Day Curative) is “A (> 80)”. For the same molecule, in the test with Phakopsora pachyrhizi, the “PHAKPA disease control, 1DP” value was “A (> 80)” and the “PHAKPA disease control, 3DC” value is on record as “B (≤ 80)”.
Turning to `CC[C@H](NC(=O)c1nccc(OC)c1OCOC(C)=O)C(=O)O[C@@H](C)[C@H](Oc1cc(F)cc(Cl)c1)c1ccccc1` [Cmpd 643], in the test on Zymoseptoria tritici (1 Day Protectant), the “SEPTTR 1DP … (% Control rating)” value was “A (> 80)”. In the test on Zymoseptoria tritici (3 Day Curative), the “SEPTTR 3DC … (% Control rating)” value is reported as “A (> 80)”. The “PUCCRT 1DP … (% Control rating)” value in the test with Puccinia triticina (1 Day Protectant) is “A (> 80)”. Further, the “PUCCRT 3DC … (% Control rating)” value in the test on Puccinia triticina (3 Day Curative) is listed as “B (≤ 80)”.
As for `COc1ccnc(C(=O)NC(C)C(=O)OC(C(C)C)C(Oc2ccccc2)C(C)C)c1OCOC(C)=O` (centres unmarked) [Cmpd 1094], the “LV activity at 125.1 g/H SEPTTR 1DP (disease control rating)” value in the test on Zymoseptoria tritici (1 Day Protectant, wheat leaf blotch) is recorded as “D”. Besides, the “LV activity at 125.1 g/H SEPTTR 3DC (disease control rating)” value with Zymoseptoria tritici (3 Day Curative, wheat leaf blotch) was “D”. Further, the “LV activity at 125.1 g/H PUCCRT 1DP (disease control rating)” value in the test with Puccinia triticina (1 Day Protectant, wheat brown rust) is on record as “D”. Besides, the “LV activity at 125.1 g/H PUCCRT 3DC (disease control rating)” value in the test with Puccinia triticina (3 Day Curative, wheat brown rust) is reported as “D”.
